The values below come from patent US5985922A, “Amino acid derivatives and active oxygen-resisting agent” (Ajinomoto Co., Inc., priority 1997, dated 1999).

The subject of data set [1] is lipid peroxidation. The data set is described as follows: Test for an Active Oxygen Resistance (inhibition of lipid peroxidation in mouse brain homogenate). The format is biochemical. The following applies: whole brain homogenate, C57 black mouse, 20-mM phosphate buffer; 37° C., 30 minutes. On the procedure:
The test was conducted according to the method described in Method in Enzymol., vol. 52, p. […] The outline of the test method was that a homogenized 20-mM phosphate buffer of the whole brain of a C57 black mouse was prepared, a test substance was added thereto, and an absorbance of the mixture was measured.
Percent peroxidation inhibition (%)--
A1 : Absorbance in the addition of the test compound
A2 : Absorbance before the addition of the test compound
A3 : Absorbance when the test compound is not added, nor is the heating at 37° C. for 30 minutes conducted.

Data set [2] in a line: Test for a Solubility (oil solvents, 1% by weight). The format is physicochemical. How it is done: The solubility in the solvent shown in Table 2 when the concentration was 1% by weight was evaluated.

As to `O=C(O)CC(O)(CC(=O)O)C(=O)O` [Citric acid, reference compound], in data set [1], the “Percent inhibition of lipid peroxidation” value is listed as -15%.

For the compound `C[C@H](NCc1ccccc1O)C(=O)O` [N-(2-hydroxybenzyl)-L-alanine, reference compound], the “Percent inhibition of lipid peroxidation” value in data set [1] was determined as 6%. In data set [2], the “Solubility in liquid paraffin” value is given as “insoluble” and the “Solubility in olive oil” value was “insoluble”.

For `O=C(O)CNCc1ccccc1O` [N-(2-hydroxybenzyl)-L-glycine, reference compound], in data set [2], the “Solubility in liquid paraffin” value was “insoluble” and the “Solubility in olive oil” value is on record as “insoluble”.

Take `O=C(O)[C@H](Cc1ccccc1)NCc1ccccc1O` [N-(2-hydroxybenzyl)-L-phenylalanine, reference compound]: in data set [2], the “Solubility in liquid paraffin” value was “insoluble” and the “Solubility in olive oil” value is on record as “insoluble”.

Regarding `CCCCCCCCCCCCOC(=O)[C@H](C)NCc1ccccc1O` [Synthesis Example 1, N-(2-hydroxybenzyl)-L-alanine lauryl ester], the “Percent inhibition of lipid peroxidation” value in data set [1] is 39%. For the same compound, in data set [2], the “Solubility in liquid paraffin” value is on record as “soluble” and the “Solubility in olive oil” value is listed as “soluble”.

`CCCCCCCCCCCCCCCCCCOC(=O)[C@H](C)NCc1ccccc1O` [Synthesis Example 2, N-(2-hydroxybenzyl)-L-alanine stearyl ester]: the “Percent inhibition of lipid peroxidation” value in data set [1] amounted to 16%. In data set [2], the “Solubility in liquid paraffin” value is “soluble” and the “Solubility in olive oil” value is listed as “soluble”.

As for `CCCCCCCCCCCCOC(=O)CNCc1ccccc1O` [Synthesis Example 3, N-(2-hydroxybenzyl)glycine lauryl ester], in data set [2], the “Solubility in liquid paraffin” value is “soluble” and the “Solubility in olive oil” value was “soluble”.

`CCCCCCCCCCCCOC(=O)[C@H](Cc1ccccc1)NCc1ccccc1O` [Synthesis Example 4, N-(2-hydroxybenzyl)-L-phenylalanine lauryl ester]: in data set [2], the “Solubility in liquid paraffin” value is given as “soluble” and the “Solubility in olive oil” value was “soluble”.

For `CCCCCCCCCCCCNC(=O)[C@H](C)NCc1ccccc1O` [Synthesis Example 5, N-(2-hydroxybenzyl)-L-alanine laurylamide], the “Percent inhibition of lipid peroxidation” value in data set [1] turned out to be 80%. In addition, in data set [2], the “Solubility in liquid paraffin” value is recorded as “gelling” and the “Solubility in olive oil” value was “soluble”.

In the case of `CCCCCCCCCCCCCCCCCCNC(=O)[C@H](C)NCc1ccccc1O` [Synthesis Example 6, N-(2-hydroxybenzyl)-L-alanine stearylamide], in data set [1], the “Percent inhibition of lipid peroxidation” value stood at 17%. Further, in data set [2], the “Solubility in liquid paraffin” value is given as “gelling” and the “Solubility in olive oil” value is listed as “soluble”.

As to `CCCCCCCCCCCCNC(=O)CNCc1ccccc1O` [Synthesis Example 7, N-(2-hydroxybenzyl)glycine laurylamide], in data set [2], the “Solubility in liquid paraffin” value is on record as “gelling” and the “Solubility in olive oil” value is given as “soluble”.

As to `CCCCCCCCCCCCNC(=O)[C@H](Cc1ccccc1)NCc1ccccc1O` [Synthesis Example 8, N-(2-hydroxybenzyl)phenylalanine laurylamide], in data set [2], the “Solubility in liquid paraffin” value is “gelling” and the “Solubility in olive oil” value is recorded as “soluble”.

On to `O=C1O[C@H]([C@@H](O)CO)C(O)=C1O` [Vitamin C, reference compound], for which the “Percent inhibition of lipid peroxidation” value in data set [1] is -23%.
